“Also recorded” adds a separate entry of the source.
What was measured:
[1] = tested on: spontaneously hypertensive rats; assay: Antihypertensive efficacy test in spontaneously hypertensive rats (systolic blood pressure and heart rate by implanted sensor); assay type: in vivo; settings: SHR; for Systolic blood pressure compared with the control group: after 3 hours of administration; for Systolic blood pressure change, 1 hour after administration / Systolic blood pressure change, 3 hours after administration / Systolic blood pressure change, 5 hours after administration / Systolic blood pressure change, 7 hours after administration / Systolic blood pressure change, 10 hours after administration / Systolic blood pressure change, 24 hours after administration / Systolic blood pressure change, before administration: intragastric; for Systolic blood pressure change, 1 hour after administration / Systolic blood pressure change, 3 hours after administration / Systolic blood pressure change, 5 hours after administration / Systolic blood pressure change, 7 hours after administration / Systolic blood pressure change, 10 hours after administration / Systolic blood pressure change, 24 hours after administration / Heart rates change, 1 hour after administration / Heart rates change, 3 hours after administration / Heart rates change, 5 hours after administration / Heart rates change, 7 hours after administration / Heart rates change, 10 hours after administration / Heart rates change, 24 hours after administration: change vs before administration; for Systolic blood pressure change, 1 hour after administration / Systolic blood pressure change, 3 hours after administration / Systolic blood pressure change, 5 hours after administration / Systolic blood pressure change, 7 hours after administration / Systolic blood pressure change, 10 hours after administration / Systolic blood pressure change, 24 hours after administration / Systolic blood pressure change, before administration / Heart rates change, 1 hour after administration / Heart rates change, 3 hours after administration / Heart rates change, 5 hours after administration / Heart rates change, 7 hours after administration / Heart rates change, 10 hours after administration / Heart rates change, 24 hours after administration / Heart rates change, before administration: average ± standard error; for Systolic blood pressure change, before administration / Heart rates change, before administration: reference value; for Heart rates change, 1 hour after administration / Heart rates change, 3 hours after administration / Heart rates change, 5 hours after administration / Heart rates change, 7 hours after administration / Heart rates change, 10 hours after administration / Heart rates change, 24 hours after administration / Heart rates change, before administration: oral
Experimental: 12-week-old spontaneously hypertensive rats (hereinafter referred to as SHR, purchased from Beijing Weitong Lihua Experimental Animal Technology Co., Ltd.) were anesthetized with 2.5% sodium pentobarbital for intraperitoneal injection. After that, the blood pressure sensing catheter of hypertension implant was inserted into their abdominal aorta, while the implant was fixed to the abdominal wall, and then postoperative daily care is performed after suturing.
Rats with systolic blood pressure exceeding 160 mm Hg were divided into 3 groups (control group, compound (A) group and compound (B) group), wherein each group has 8 rats. The control group was administrated 0.5% sodium carboxymethylcellulose (hereinafter referred to as CMC-Na); the compound (B) group and the compound (A) group were respectively administered the compound (B) and the compound (A), both of which were dissolved by 0.5% CMC-Na, by intragastric administration, at a dose of 1 mg/kg (calculated by the effective dose of valsartan) and a volume calculated by 4 mL/kg.
The systolic blood pressure and heart rate of SHR were compared before and after administration (the systolic blood pressure and heart rate of SHR before administration as reference value), which were detected three times at each time point with the average value recorded.

[2] = Comparative experiment of stability between crystalline form III and IV (drying overnight at room temperature, XRD); assay type: physicochemical
Description: (4) Comparative experiment of stability between the crystalline form III and the crystalline form IV
The Crystalline form III and the crystalline form IV samples were respectively dried overnight at room temperature.

[3] = Comparative stability test (total impurity content); assay type: physicochemical; settings: 25° C., 60% relative humidity; for total impurity content % at 0 months / total impurity content % at 1 month / total impurity content % at 2 months / total impurity content % at 3 months / total impurity content % at 6 months: packed
Experimental: The stability of an amorphous form, a mixture of the crystalline forms I and the crystal II, the crystalline form II and the crystal form III of the compound of formula (A) were investigated. Specifically, the amorphous form, the mixture of the crystalline form I and the crystalline form II (weight ratio 1:2), the crystalline form II and the crystalline form III were taken 200 mg respectively to be investigated as follows:
Packing: Polyvinyl chloride (PVC) material ziplock bag (the inner layer) was vacuumized, aluminum foil (the middle layer) was vacuumized, and aluminum foil desiccant (the outer layer) was vacuum and filled in with nitrogen;
Inspection conditions: 25° C., 60% relative humidity. The indicator was the total impurity content, which is determined by detection of samples three times at each time point with the average value recorded. The time points for sampling include 0, 1, 2, 3 and 6 months after packing.

[4] = Room temperature competition test between crystalline forms (ethyl acetate suspension, XRD); assay type: physicochemical; settings: for Relative stability under room temperature (competition test): ethyl acetate suspension
Experimental: (1) Competition experiment between the crystalline form I and the crystalline form II
Equivalent amounts of the crystalline form I and the crystalline form II samples were mixed well, added with 0.8 ml ethyl acetate to form a suspension, stirred overnight and detected by XRD.
(2) Competition experiment between the crystalline form II and the crystalline form III
Equivalent amounts of the crystalline form II and the crystalline form III samples were mixed well, added with 0.2 ml ethyl acetate to form a suspension, which was stirred overnight to obtain the crystalline form II determined by XRD detection.
(3) Competition experiment between crystalline form I and crystalline form III
Equivalent amounts of the crystalline form I and the crystalline form III samples were mixed uniformly, added with 0.2 ml ethyl acetate to form a suspension, which was stirred overnight, to obtain the crystalline form I determined by XRD detection.

[5] = Influences of high temperature and high humidity on the crystalline form II (XRD); assay type: physicochemical; settings: XRD vs crude sample
Experimental: Two samples of 20 mg of the crystalline form II were respectively placed at 60° C. (sealed and shielded from light) and 85% relative humidity (exposed in the air at room temperature and shielded from light), detected by XRD after 10 days and compared with the XRD of the crude sample.

[6] = Effect of tabletting processes on the crystalline form II (XRD); assay type: physicochemical; settings: 50 mg, single punching machine, XRD vs crude sample
Experimental: Tabletting method: 50 mg of the crystalline form II was tableted under 20 kg and 25 kg pressure tabletting by a single punching machine.
The XRD of the obtained sample powder was compared with the XRD of the crude sample, the results are shown in FIG. 8 (from top to bottom: the crude sample, the sample after 25 kg pressure tabletting and the sample after 20 kg pressure tabletting).

[7] = equivalent amounts, 0.2 ml ethyl acetate suspension, stirred overnight, XRD

## CCOc1nc2cccc(C(=O)OC(C)OC(=O)OCc3nc(C)c(C)nc3C)c2n1Cc1ccc(-c2ccccc2-c2noc(=O)[n-]2)cc1.[K+] (single isomer, unassigned) [Compound (A)]
[1]; 1 mg/kg
  Lowering of heart rate compared with the compound (B) group: more potent with longer-lasting of lowering heart rate
  Systolic blood pressure compared with the control group: significantly decreased
  Systolic blood pressure change, before administration: 0.0 ± 0.0 mmHg
  Heart rates change, before administration: 0.0 ± 0.0 times/minute
[1]; 1 mg/kg intragastric
  Antihypertensive effect compared with the compound (B) group: more potent with longer-lasting antihypertensive effect
[1]; 1 mg/kg, 1 mg/kg
  Systolic blood pressure change, 1 hour after administration: −7.0 ± 3.4 mmHg
  Systolic blood pressure change, 3 hours after administration: −34.3 ± 1.9 mmHg
  Systolic blood pressure change, 5 hours after administration: −46.5 ± 2.5 mmHg
  Systolic blood pressure change, 7 hours after administration: −49.4 ± 4.1 mmHg
  Systolic blood pressure change, 10 hours after administration: −45.3 ± 3.3 mmHg
  Systolic blood pressure change, 24 hours after administration: −25.9 ± 3.4 mmHg
  Heart rates change, 1 hour after administration: −3.6 ± 2.4 times/minute
  Heart rates change, 3 hours after administration: −5.0 ± 2.5 times/minute
  Heart rates change, 5 hours after administration: −10.1 ± 3.0 times/minute
  Heart rates change, 7 hours after administration: −17.5 ± 3.0 times/minute
  Heart rates change, 10 hours after administration: −25.4 ± 2.4 times/minute
  Heart rates change, 24 hours after administration: −28.6 ± 8 times/minute

## CCOc1nc2cccc(C(=O)OC(C)OC(=O)OCc3nc(C)c(C)nc3C)c2n1Cc1ccc(-c2ccccc2-c2noc(=O)[n-]2)cc1.[K+] (single isomer, unassigned) [Compound (B), reference compound]
[1]; 1 mg/kg
  Systolic blood pressure compared with the control group: significantly decreased
  Systolic blood pressure change, before administration: 0.0 ± 0.0 mmHg
  Heart rates change, before administration: 0.0 ± 0.0 times/minute
[1]; 1 mg/kg, 1 mg/kg
  Systolic blood pressure change, 1 hour after administration: −4.9 ± 4.8 mmHg
  Systolic blood pressure change, 3 hours after administration: −22.0 ± 3.6 mmHg
  Systolic blood pressure change, 5 hours after administration: −30.5 ± 3.5 mmHg
  Systolic blood pressure change, 7 hours after administration: −38.8 ± 2.3 mmHg
  Systolic blood pressure change, 10 hours after administration: −33.0 ± 1.7 mmHg
  Systolic blood pressure change, 24 hours after administration: −10.2 ± 2.1 mmHg
  Heart rates change, 1 hour after administration: −3.4 ± 2.6 times/minute
  Heart rates change, 3 hours after administration: −2.33 ± 2.6 times/minute
  Heart rates change, 5 hours after administration: −6.5 ± 2.8 times/minute
  Heart rates change, 7 hours after administration: −6.2 ± 3.0 times/minute
  Heart rates change, 10 hours after administration: −12.3 ± 2.8 times/minute
  Heart rates change, 24 hours after administration: −6.7 ± 2.6 times/minute

## CCOc1nc2cccc(C(=O)OC(C)OC(=O)OCc3nc(C)c(C)nc3C)c2n1Cc1ccc(-c2ccccc2-c2noc(=O)[n-]2)cc1.[K+] (centres unmarked) [crystalline form III]
[2]; dried overnight at room temperature, XRD
  Portion converted to the crystalline form I: no more than 30%
[2]
  Stability at room temperature (drying experiment): superior to that of the crystalline form IV
[3]
  Chemical stability compared with the amorphous form: better than the amorphous form
  total impurity content % at 0 months: 1.56%
  total impurity content % at 1 month: 2.55%
  total impurity content % at 2 months: 2.98%
  total impurity content % at 3 months: 3.34%
  total impurity content % at 6 months: 3.76%
[4]; [7]
  Crystal form transformation, competition form I vs form III: completely transformed into the crystalline form I
  Crystal form transformation, competition form II vs form III: completely transformed into the crystalline form II

## CCOc1nc2cccc(C(=O)OC(C)OC(=O)OCc3nc(C)c(C)nc3C)c2n1Cc1ccc(-c2ccccc2-c2noc(=O)[n-]2)cc1.[K+] (centres unmarked) [crystalline form II]
[2]
  Stability at room temperature (drying experiment): superior to that of the crystalline form IV
[3]
  Chemical stability compared with the amorphous form: better than the amorphous form
  total impurity content % at 0 months: 1.29%
  total impurity content % at 1 month: 1.43%
  total impurity content % at 2 months: 1.59%
  total impurity content % at 3 months: 1.82%
  total impurity content % at 6 months: 1.87%
[4]
  Relative stability under room temperature (competition test): better than that of the crystalline form I; also recorded: better than that of the crystalline form III
[5]; exposed in the air at room temperature, shielded from light
  Crystal form after 10 days at 85% relative humidity: remains unchanged
[5]; sealed and shielded from light
  Crystal form after 10 days at 60° C.: remains unchanged
[6]
  Crystal form after tabletting, 20 kg pressure: remains unchanged
  Crystal form after tabletting, 25 kg pressure: remains unchanged

## CCOc1nc2cccc(C(=O)OC(C)OC(=O)OCc3nc(C)c(C)nc3C)c2n1Cc1ccc(-c2ccccc2-c2noc(=O)[n-]2)cc1.[K+] (centres unmarked) [crystalline form IV]
[2]; dried at room temperature, XRD
  Crystal form transformation on drying at room temperature: converted to the crystalline form I; also recorded: completely transformed into the crystalline form I
[2]
  Stability at room temperature (drying experiment): poor stability

## CCOc1nc2cccc(C(=O)OC(C)OC(=O)OCc3nc(C)c(C)nc3C)c2n1Cc1ccc(-c2ccccc2-c2noc(=O)[n-]2)cc1.[K+] (centres unmarked) [crystalline form I]
[2]
  Stability at room temperature (drying experiment): superior to that of the crystalline form IV
[3]
  Chemical stability compared with the amorphous form: better than the amorphous form
  total impurity content % at 0 months: 1.11%
  total impurity content % at 1 month: 1.62%
  total impurity content % at 2 months: 2.34%
  total impurity content % at 3 months: 2.49%
  total impurity content % at 6 months: 3.10%
[4]; equivalent amounts of form I and form II, 0.8 ml ethyl acetate suspension, stirred overnight, XRD
  Content of the crystalline form I in the obtained product: about 5%
[4]
  Relative stability under room temperature (competition test): better than that of the crystalline form III

## CCOc1nc2cccc(C(=O)OC(C)OC(=O)OCc3nc(C)c(C)nc3C)c2n1Cc1ccc(-c2ccccc2-c2noc(=O)[n-]2)cc1.[K+] (centres unmarked) [mixture of crystalline form I and II]
[3]
  Chemical stability compared with the amorphous form: better than the amorphous form
  total impurity content % at 0 months: 0.90%
  total impurity content % at 1 month: 1.58%
  total impurity content % at 2 months: 2.20%
  total impurity content % at 3 months: 2.40%
  total impurity content % at 6 months: 3.29%

From patent US11013736B2, “Oral solid preparation and use thereof” (WUHAN LL SCIENCE AND TECHNOLOGY DEVELOPMENT CO., LTD., priority 2016, dated 2021)
